Data: patent US10093675B2, “6,8-disubstituted-9-(heterocyclyl)purines, compositions containing these derivatives and their use in cosmetic and medicinal applications” (USTAV EXPERIMENTALNI BOTANIKY AV CR, V.V.I., priority 2014, dated 2018)

How the values were obtained:
[1] = system: excised wheat leaf tips (Triticum aestivum cv. Hereward); test: Senescence inhibition on winter wheat leaf segments (retention of chlorophyll); format: in vivo; settings: 10^−4 mol/L; 96 hours in the dark; activity of kinetin set at 100%
Procedure: Seeds of winter wheat, Triticum aestivum cv. Hereward, were washed under running water for 24 hours and then sown on vermiculite soaked with Knop's solution. They were placed in the grown chamber at 25° C. with a 16/8 hours light period at […]. After 7 days, the first leaf was fully developed and the second leaf had started to grow. A tip section of the first leaf, approximately 35 mm long, was removed from 5 seedlings and trimmed slightly to a combined weight of 100 mg. The basal ends of the five leaf tips were placed in the wells of a microtiter polystyrene plate containing […] of a cytokinin solution each. The entire plate was inserted into a plastic box lined with paper tissues soaked in distilled water to prevent leaf sections from drying out. After 96 hours incubation in the dark at 25° C., the leaves were removed and chlorophyll extracted by heating at 80 C for 10 min in 5 ml of 80% ethanol (v/v). The sample volume was then restored to 5 ml by the addition of 80% ethanol (v/v). The absorbance of the extract was recorded at 665 nm. In addition, chlorophyll extracts from fresh leaves and leaf tips incubated in deionized water were measured. From the obtained data, the concentration with highest activity was selected for each compound tested. Relative activity of the compound at this concentration was calculated (see Table 6 below). The activity obtained for 10^−4 M kinetin (Kin) was set as 100%. The values shown are means of five replicates and the whole experiment was repeated twice.
The compounds to be tested were dissolved in dimethylsulfoxide (DMSO) and the solution brought up to 10^−3 M with distilled water. […] As summarized in Table 6 below, the presence of C-8 substitutent was beneficial and led to increase of antisenescent properties.

[2] = system: Salmonella typhimurium histidien auxotrophs TA98 and TA100; test: Ames test; format: cell-based; settings: 2.5 to 5000 μg/plate; presence and absence of Aroclor-induced rat liver S9
Procedure: A number of tests related to the safety of have been carried out using conventionally accepted protocols and procedures. The results of these studies are summarized herein. Tests were carried out using DMSO as solvent and dose levels of compound 21, 24, 26, 27, 39, 41, 45, 48, 50, 52, 53, 54, 55, 56, 63, 64, 66, 67, 68, 69, 70, 71, 72, 74, 76, 124, 125, 126, 127, 128, 129, 130, 145, 146, 147, 149, 150, 151, 208, 216, 218 a 243 at 2.5, 5.0, 15, 50, 500, 1500, and 5000 μg/plate based upon standard protocol and procedures (Ames et al., Mutation Research, 31, 347-364 (1975); Maron et al., Mutation Research, 113, 173-215 (1983)).

[3] = system: human diploid fibroblasts (HDF cells; HDF25, HDF45, HDF80); test: Inhibition of human cell aging: senescent cells by beta-galactosidase staining; format: cell-based; settings: for SENESCENT CELLS (%) HDF25: human diploid fibroblasts passage 25, beta-galactosidase staining; for SENESCENT CELLS (%) HDF45: human diploid fibroblasts passage 45, beta-galactosidase staining; for SENESCENT CELLS (%) HDF80: human diploid fibroblasts passage 80, beta-galactosidase staining
Procedure: In this example, human diploid fibroblasts (HDF cells of various passage levels: passage 25—designated HDF25; passage 45—designated HDF45; passage 80—designated HDF80) were stained for beta-galactosidase activity. The medium used for the cell cultivation was removed the cells were washed twice in […], and fixed in 2-3 ml of fixing solution comprised of a 2% formaldehyde and 0.2% glutaraldehyde in PBS. The cells were incubated at room temperature for 5 minutes, and then washed twice with PBS. The cells were subsequently incubated at 37° C. […] In this experiment, senescent cells, but no other cells were stained blue due to the action of beta-galactosidase on the substrate.

## Fc1ccc(CNc2ncnc3c2nc(Cl)n3C2CCCCO2)cc1F (centres unmarked) [Compound 11]
[1]
  Activity (%) (s.d.), retention of chlorophyll: 127 (±5) %

## COc1ccc(CNc2ncnc3c2nc(Cl)n3C2CCCCO2)cc1OC (centres unmarked) [Compound 12]
[1]
  Activity (%) (s.d.), retention of chlorophyll: 140 (±7) %

## COc1ccc(CNc2ncnc3c2nc(Br)n3C2CCCCO2)cc1OC (centres unmarked) [Compound 41]
[2]
  mutagenic response: no positive mutagenic responses
[3]
  SENESCENT CELLS (%) HDF25: 2%
  SENESCENT CELLS (%) HDF45: 6%
  SENESCENT CELLS (%) HDF80: 21%
[1]
  Activity (%) (s.d.), retention of chlorophyll: 133 (±7) %

## Ic1nc2c(NCc3ccco3)ncnc2n1C1CCCCO1 (centres unmarked) [Compound 45, 8-Iodo-6-furfurylamino-9-(tetrahydropyran-2-yl)-9H-purine]
[2]
  mutagenic response: no positive mutagenic responses
[3]
  SENESCENT CELLS (%) HDF25: 3%
  SENESCENT CELLS (%) HDF45: 5%
  SENESCENT CELLS (%) HDF80: 20%
[1]
  Activity (%) (s.d.), retention of chlorophyll: 112 (±4) %

## C/C(=C\CNc1ncnc2c1nc(I)n2C1CCCCO1)CO (centres unmarked) [Compound 48]
[2]
  mutagenic response: no positive mutagenic responses
[3]
  SENESCENT CELLS (%) HDF25: 2%
  SENESCENT CELLS (%) HDF45: 4%
  SENESCENT CELLS (%) HDF80: 21%
[1]
  Activity (%) (s.d.), retention of chlorophyll: 120 (±4) %

## Fc1cccc(CNc2ncnc3c2nc(I)n3C2CCCCO2)c1 (centres unmarked) [Compound 50]
[2]
  mutagenic response: no positive mutagenic responses
[3]
  SENESCENT CELLS (%) HDF25: 3%
  SENESCENT CELLS (%) HDF45: 4%
  SENESCENT CELLS (%) HDF80: 19%
[1]
  Activity (%) (s.d.), retention of chlorophyll: 121 (±4) %

## COc1cccc(CNc2ncnc3c2nc(I)n3C2CCCCO2)c1 (centres unmarked) [Compound 52]
[2]
  mutagenic response: no positive mutagenic responses
[3]
  SENESCENT CELLS (%) HDF25: 2%
  SENESCENT CELLS (%) HDF45: 6%
  SENESCENT CELLS (%) HDF80: 21%
[1]
  Activity (%) (s.d.), retention of chlorophyll: 120 (±3) %

## Oc1cccc(CNc2ncnc3c2nc(I)n3C2CCCCO2)c1 (centres unmarked) [Compound 53]
[2]
  mutagenic response: no positive mutagenic responses
[3]
  SENESCENT CELLS (%) HDF25: 2%
  SENESCENT CELLS (%) HDF45: 5%
  SENESCENT CELLS (%) HDF80: 21%
[1]
  Activity (%) (s.d.), retention of chlorophyll: 125 (±6) %

## Oc1ccc(CNc2ncnc3c2nc(I)n3C2CCCCO2)cc1O (centres unmarked) [Compound 54]
[2]
  mutagenic response: no positive mutagenic responses
[3]
  SENESCENT CELLS (%) HDF25: 3%
  SENESCENT CELLS (%) HDF45: 5%
  SENESCENT CELLS (%) HDF80: 20%
[1]
  Activity (%) (s.d.), retention of chlorophyll: 138 (±7) %

## Fc1ccc(CNc2ncnc3c2nc(I)n3C2CCCCO2)cc1F (centres unmarked) [Compound 55]
[2]
  mutagenic response: no positive mutagenic responses
[3]
  SENESCENT CELLS (%) HDF25: 3%
  SENESCENT CELLS (%) HDF45: 4%
  SENESCENT CELLS (%) HDF80: 18%
[1]
  Activity (%) (s.d.), retention of chlorophyll: 133 (±5) %

## COc1ccc(CNc2ncnc3c2nc(I)n3C2CCCCO2)cc1OC (centres unmarked) [Compound 56]
[2]
  mutagenic response: no positive mutagenic responses
[3]
  SENESCENT CELLS (%) HDF25: 3%
  SENESCENT CELLS (%) HDF45: 5%
  SENESCENT CELLS (%) HDF80: 21%
[1]
  Activity (%) (s.d.), retention of chlorophyll: 141 (±8) %
